Laboratory results from patent US7368454B2, “(3,4-dihydro-quinazolin-2-yl)-aryl-amines” (Hoffmann-La Roche Inc., priority 2005, dated 2008).

Each compound was assayed against T1, recombinant human 5-HT5A receptor (Homo sapiens, UniProt P47898) (assay: [3H]LSD radioligand binding assay). Details: [3H]LSD approx. 1 nM; membranes from HEK-EBNA cells transiently expressing 5-HT5A; SPA; Ki from IC50 by Cheng-Prussoff equation.
T1 construct: expressed in transfected cells; host or cells: Human Embryonic Kidney-EBNA (HEK-EBNA) cells, transient expression, membranes
T1 sequence (P47898 whole entry): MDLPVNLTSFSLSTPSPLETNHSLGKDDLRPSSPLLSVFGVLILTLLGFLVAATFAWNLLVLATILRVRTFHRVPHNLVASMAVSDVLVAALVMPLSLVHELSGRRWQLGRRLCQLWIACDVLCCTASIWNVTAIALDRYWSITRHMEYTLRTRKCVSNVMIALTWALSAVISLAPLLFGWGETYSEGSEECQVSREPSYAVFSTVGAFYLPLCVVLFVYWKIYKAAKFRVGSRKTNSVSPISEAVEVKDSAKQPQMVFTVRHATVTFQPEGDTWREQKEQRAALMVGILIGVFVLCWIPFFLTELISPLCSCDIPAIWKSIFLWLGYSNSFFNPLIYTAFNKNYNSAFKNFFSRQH
Experimental: A [^3H]LSD radioligand binding assay was used to determine the affinity of the compounds for the recombinant human 5-HT5A receptor, in membranes from transiently (cDNA) expressed 5-HT 5A receptors in Human Embryonic Kidney-EBNA (HEK-EBNA) cells. Assay buffer consisted of Tris (50 mM) buffer containing 1 mM EGTA, 10 mM MgCl2 (pH 7.4) and 10 μM pargyline. The binding assay was carried out in 96-well-plates in the presence of [^3H]LSD (approximately 1 nM), approximately 2 μg/well of membrane protein, and 0.5 mg of Ysi-poly-1-lysine SPA beads in a final volume of 200 μl of buffer. Non-specific binding was defined using methiothepin 2 μM. Compounds were tested at 10 concentrations. All assays were conducted in duplicate and repeated at least two times. Assay plates were incubated for 120 min at room temperature before centrifugation. Bound ligand was determined using a Packard Topcount scintillation counter. IC50 values were calculated using a non-linear curve fitting program and Ki values calculated using the Cheng-Prussoff equation.

| SMILES | Ki [nM] |
| --- | --- |
| Cc1cccc2c1CNC(Nc1cccc(C(F)(F)F)c1)=N2 [Example 1, (5-Methyl-3,4-dihydro-quinazolin-2-yl)-(3-trifluoromethyl-phenyl)-amine] | 85 |
| FC(F)(F)c1cccc(NC2=Nc3ccccc3CN2)c1 [Example 2, (3,4-Dihydro-quinazolin-2-yl)-(3-trifluoromethyl-phenyl)-amine] | 91 |
| FC(F)(F)c1cccc(NC2=Nc3cccc(Cl)c3CN2)c1 [Example 3, (5-Chloro-3,4-dihydro-quinazolin-2-yl)-(3-trifluoromethyl-phenyl)-amine] | 118 |
| Cc1cccc(NC2=Nc3ccccc3CN2)c1 [Example 4, (3,4-Dihydro-quinazolin-2-yl)-m-tolyl-amine] | 143 |

Continued, values first:

| Ki [nM] | SMILES |
| --- | --- |
| 149 | c1ccc2c(c1)CNC(Nc1ccc3c(c1)CCC3)=N2 [Example 5, (3,4-Dihydro-quinazolin-2-yl)-indan-5-yl-amine] |
| 155 | c1ccc2c(c1)CNC(Nc1cccc3ccccc13)=N2 [Example 6, (3,4-Dihydro-quinazolin-2-yl)-naphthalen-1-yl-amine] |
| 300 | Clc1cccc(NC2=Nc3ccccc3CN2)c1 [Example 10, (3-Chloro-phenyl)-(3,4-dihydro-quinazolin-2-yl)-amine] |
| 990 | Clc1ccc(NC2=Nc3ccccc3CN2)cc1 [Example 15, (4-Chloro-phenyl)-(3,4-dihydro-quinazolin-2-yl)-amine] |
| 1000 | Fc1ccccc1NC1=Nc2ccccc2CN1 [Example 16, (3,4-Dihydro-quinazolin-2-yl)-(2-fluoro-phenyl)-amine; hydriodide] |
